{
  "source": "patent US12686704B2",
  "about": "“Procoagulant peptides and use thereof” (RAMBAM MED-TECH LTD., priority 2021, dated 2026)",
  "key": {"[1]": {"system": "ICR mice", "test": "Immunostaining of wound skin sections of ICR mice", "type": "in vivo, mouse", "conditions": "subcutaneous opposite to the wound every other day for a week; for expression of heparanase in micro-vessels: FIG. 10A; for expression of TF in micro-vessels: FIG. 10B; for expression of TFPI-1 in micro-vessels: FIG. 10C; for expression of TFPI-2 in micro-vessels: FIG. 10D", "method": "FIGS. 10A-10D include micrographs of immunohistochemistry assays showing that heparanase procoagulant peptides increase the level of heparanase, TF, TFPI and TFPI-2. Full thickness incision was made in the back skin of ICR mice. Each group included 5 mice. From the day of surgery either peptide 16 or 16AC was injected subcutaneous opposite to the wound, every other day for a week. At the end of the experiment the mice were sacrificed and the wound skin section was analyzed by immunostaining. […] Images were visualized through ×50 magnitude, with 0.82 MDC objective lens, captured with a Nikon E995 digital camera (Nikon, Tokyo, Japan), and processed with Adobe Photoshop software (Adobe Systems, San Jose, CA, USA).\nBriefly, full thickness incision was made in the back skin of ICR mice. Each group included 5 mice. From the day of surgery either peptide 16 or 16AC was injected subcutaneous opposite to the wound, every other day for a week. At the end of the experiment the mice were sacrificed and the wound skin section was analyzed by immunostaining."}, "[2]": {"system": "human umbilical vein endothelial cells (HUVEC)", "test": "HUVEC proliferation, XTT assay", "type": "cell-based", "conditions": "2.5 μg/ml and 5 μg/ml; 48 hour; FIG. 5A", "method": "FIGS. 5A-5B include vertical bar graphs showing that heparanase procoagulant peptides induce human umbilical vein endothelial cells (HUVEC) proliferation. (5A) HUVEC cells were seeded in 96 wells plate (5,000 cells/well). Increasing concentration of peptides 16 and 16AC (2.5 μg/ml, and 5 μg/ml) were added to the cells. […] (5B) Similar experiment as described in 5A, but 10 ng/ml of peptide 7 (TFPI-2 derived inhibitory peptide) was added to the cells for 1 hour prior to the addition of peptide 16 (5 μg/ml) or 16AC (5 μg/ml).\nBriefly, HUVEC cells were seeded in 96 wells plate (5,000 cells/well). Increasing concentration of peptides 16 and 16AC (2.5 μg/ml, and 5 μg/ml) were added to the cells."}, "[3]": {"system": "citrated pooled normal human blood", "test": "Thromboelastography (TEG) of citrated pooled normal human blood", "conditions": "for Angle / K / MA (maximal amplitude) / R (time to clot formation) / SP / thrombus strength (maximal amplitude, MA), in words / time to clot formation (R), in words: 5 μg/ml with calcium; for Angle / K / MA (maximal amplitude) / R (time to clot formation) / SP: blood left 4 hours at room temperature, representative TEG curve FIG. 1B; for thrombus strength (maximal amplitude, MA), in words / time to clot formation (R), in words: vs control", "method": "FIGS. 1A-1C include vertical bar graphs and thromboelastography (TEG) curves, showing that peptide 16 and peptide 16AC increase coagulation. Peptide 16 and 16AC were studied in an assay of purified proteins that included lipidated TF (4 nM), factor VIIa (40 nM), factor X (1.4 μM) and assay buffer. Factor X activated form (Xa) level was studied using a chromogenic substrate (1 mM). […] Bovine factor Xa diluted in the assay buffer was used to generate a standard curve. Without addition of TF (two right columns), no factor Xa was generated. […] (1B) A citrated pooled normal human blood sample (n=3) was left for 4 hours at room temperature in order to expose TF in bloods cells. Following this period, the peptides 16 and 16AC were added (5 μg/ml) along with calcium. […] Representative TEG curves are shown. (1C) The study presented in FIG. 1B was repeated 3 times with different pooled plasma. […] Peptide 16 (non-modified); peptide 16 comprising a C-terminal amid group (16A); peptide 16 comprising an N-terminal acetyl group (16C); and peptide 16 comprising a C-terminal amid group and an N-terminal acetyl group (16AC). In 1B: for control—SP min=11.2; R min=12.8; K min=3.8, Angle deg=52.0; and MA mm=47.9, for Peptide 16—SP min=5.2; R min=6.4; K min=2.8, Angle deg=63.3; and MA mm=50.4, and for Peptide 16AC—SP min=4.7; R min=5.6; K min=2.5, Angle deg=63.1; and MA mm=53.8.\nA citrated pooled normal human blood sample (n=3) was left for 4 hours at room temperature in order to expose TF in bloods cells. Following this period, the peptides 16 and 16AC were added (5 μg/ml) along with calcium. […] Representative images are shown (FIG. 1B). The study from B section was repeated 3 times with different pooled blood."}, "[4]": {"system": "HUVEC cells", "test": "HUVEC migration, scratch (artificial gap) assay", "type": "cell-based, human", "conditions": "10 μg/ml; 4 hours; compared to the control and the non-modified peptide 16", "method": "FIG. 11 includes micrographs showing that procoagulant peptides increase endothelial cells migration. HUVEC cells were seeded in 35 mm dishes. At confluence of 90%, artificial gap was created using 1,000-μl standard pipette tip. Plate was washed twice with PBS to remove cell debris and incubated with either peptide 16 or 16AC (10 μg/ml). Representative photos of the scratched area after 4 hours are presented. Images were visualized through ×50 magnitude, with 0.82 MDC objective lens, captured with a Nikon E995 digital camera (Nikon, Tokyo, Japan), and processed with Adobe Photoshop software (Adobe Systems, San Jose, CA, USA).\nBriefly, HUVEC cells were seeded in 35 mm dishes. At confluence of 90%, artificial gap was created using 1,000 μl standard pipette tip. Plate was washed twice with PBS to remove cell debris and incubated with either peptide 16 or 16AC (10 μg/ml)."}, "[5]": {"system": "HEK-293 cells with full length TF (TF) or truncated TF", "test": "p-p38 signaling in TF-transfected HEK-293 cells (western blot)", "type": "cell-based", "conditions": "2 hours; cells with truncated TF devoid of the intracellular part", "method": "FIG. 12 includes a vertical bar graph and a micrograph of a western blot analysis. Procoagulant peptide 16AC was added for 2 hours to transfected HEK-293 cells with full length TF (TF) or truncated TF devoid of the intracellular part (ΔTF). […] Control—vector only (Vo); transfection with the empty plasmid, with no additional DNA.\nAdditionally, the inventor explored binding interaction between the procoagulant peptide of the invention and TF. Briefly, the procoagulant peptide 16AC was added for 2 hours to transfected HEK-293 cells with full length TF (TF) or truncated TF devoid of the intracellular part (ATF)."}},
  "data": [
    {"substance": "GSKRRKLRVYLHCT [Peptide 16, peptide comprising the procoagulant domain of heparanase, non-modified]", "values": [
      {"measurement": "expression of heparanase in micro-vessels", "setting": "[1]", "result": "significant increase in the expression"},
      {"measurement": "expression of TF in micro-vessels", "setting": "[1]", "result": "significant increase in the expression"},
      {"measurement": "expression of TFPI-1 in micro-vessels", "setting": "[1]", "result": "significant increase in the expression"},
      {"measurement": "expression of TFPI-2 in micro-vessels", "setting": "[1]", "result": "significant increase in the expression"},
      {"measurement": "cell proliferation", "setting": "[2]", "result": "significant increase in cell proliferation"},
      {"measurement": "Angle", "setting": "[3]", "result": 63.3, "unit": "deg"},
      {"measurement": "K", "setting": "[3]", "result": 2.8, "unit": "min"},
      {"measurement": "MA (maximal amplitude)", "setting": "[3]", "result": 50.4, "unit": "mm"},
      {"measurement": "R (time to clot formation)", "setting": "[3]", "result": 6.4, "unit": "min"},
      {"measurement": "SP", "setting": "[3]", "result": 5.2, "unit": "min"},
      {"measurement": "thrombus strength (maximal amplitude, MA), in words", "setting": "[3]", "result": "increased thrombus strength"},
      {"measurement": "time to clot formation (R), in words", "setting": "[3]", "result": "significantly reduced the time to clot formation (R)"}
    ]},
    {"substance": "acetyl-GSKRRKLRVYLHCT-amid (Ac-GSKRRKLRVYLHCT-NH2) [Peptide 16AC, peptide 16 comprising a C-terminal amid group and an N-terminal acetyl group]", "values": [
      {"measurement": "expression of heparanase in micro-vessels", "setting": "[1]", "result": "significant increase in the expression"},
      {"measurement": "expression of TF in micro-vessels", "setting": "[1]", "result": "significant increase in the expression"},
      {"measurement": "expression of TFPI-1 in micro-vessels", "setting": "[1]", "result": "significant increase in the expression"},
      {"measurement": "expression of TFPI-2 in micro-vessels", "setting": "[1]", "result": "significant increase in the expression"},
      {"measurement": "migrating HUVEC cells", "setting": "[4]", "result": "substantial increase in migrating HUVEC cells"},
      {"measurement": "cell proliferation", "setting": "[2]", "result": "significant increase in cell proliferation"},
      {"measurement": "increase in p-p38 intracellular signaling", "setting": "[5]", "result": "not observed"},
      {"measurement": "Angle", "setting": "[3]", "result": 63.1, "unit": "deg"},
      {"measurement": "K", "setting": "[3]", "result": 2.5, "unit": "min"},
      {"measurement": "MA (maximal amplitude)", "setting": "[3]", "result": 53.8, "unit": "mm"},
      {"measurement": "R (time to clot formation)", "setting": "[3]", "result": 5.6, "unit": "min"},
      {"measurement": "SP", "setting": "[3]", "result": 4.7, "unit": "min"},
      {"measurement": "thrombus strength (maximal amplitude, MA), in words", "setting": "[3]", "result": "increased thrombus strength"},
      {"measurement": "time to clot formation (R), in words", "setting": "[3]", "result": "significantly reduced the time to clot formation (R)"},
      {"measurement": "clot formation compared to peptide 16", "setting": "[3]; 5 μg/ml, repeated 3 times with different pooled blood, FIG. 1C", "result": "significant better effect to increase clot formation compared to peptide 16"}
    ]}
  ]
}
